US7781565B2 (priority 2006, dated 2010)
“Also recorded” adds a separate entry of the source.

System: NCI-60 cell lines
Assay type: cell-based, human

In the case of WGSSTVR, the “Cell Line with which the peptide (and its tripeptide motif) is associated” value (shortened to “Cell Line with which the peptide”) is reported as “H322-Lung”.

With LWFELVS the “Cell Line the peptide is associated with (peptide recovered from phage library selection on this NCI-60 cell line)” value was “MCF-7 Breast”.

DLRRAGS was tested, and the “Cell Line (NCI-60 cell line the peptide is associated with)” value was “SW620-Colon”.

In the case of AGRICEG, the “Cell Line with which the peptide” value is reported as “CCRF-CEM Leukemia”.

For RVAAGGL, the “Cell Line the peptide is associated with (peptide recovered from phage library selection on this NCI-60 cell line)” value was “T-47D Breast”.

With LRSGRGS the “Cell Line the peptide is associated with (peptide recovered from phage library selection on this NCI-60 cell line)” value was “MDA-MB-435-Breast” and the “Cell Line with which the peptide” value was “RPMI-8226-Leukemia”.

TCGGRSY was tested, and the “Cell Line (NCI-60 cell line the peptide and its motif are associated with)” value was “SK-MEL-2 Melanoma”.

With GVRSITL the “Cell Line the peptide is associated with (peptide recovered from phage library selection on this NCI-60 cell line)” value was “ACHN Renal”.

With GSSWVVD the “Cell Line with which the peptide” value was “A549-Lung”.

For WGSGRGN, the “Cell Line with which the peptide” value was “HL-60-Leukemia”.

In the case of ALARGSG, the “Cell Line (NCI-60 cell line the peptide and its motif are associated with)” value is reported as “SK-MEL-2 Melanoma”.

For AGGQSER, the “Cell Line with which the peptide” value was “H226-Lung”.

In the case of RAVLELW, the “Cell Line (NCI-60 cell line the peptide and its motif are associated with)” value is reported as “SK-MEL-28 Melanoma”.

RLSMASR was tested, and the “Cell Line the peptide is associated with (peptide recovered from phage library selection on this NCI-60 cell line)” value was “ACHN Renal”.

With WGWRASS the “Cell Line with which the peptide” value was “A549-Lung”.

In the case of SLRSGIV, the “Cell Line with which the peptide” value is reported as “EKVX-Lung”.

In the case of DWGRSSF, the “Cell Line with which the peptide” value is reported as “A549-Lung”.

For LRYNLRS, the “Cell Line with which the peptide” value was “RPMI-8226-Leukemia”.

In the case of TYCDRAV, the “Cell Line the peptide is associated with (peptide recovered from phage library selection on this NCI-60 cell line)” value is reported as “BT-549 Breast”.

With MVYSGVS the “Cell Line (NCI-60 cell line the peptide and its motif are associated with)” value was “M14 Melanoma”.

With WSAGGPH the “Cell Line with which the peptide” value was “SR Leukemia”.

For SKYNLRS, the “Cell Line (NCI-60 cell line the peptide is associated with)” value was “HT-29 Colon”.

With LGVREVG the “Cell Line the peptide is associated with (peptide recovered from phage library selection on this NCI-60 cell line)” value was “HS 578 T Breast”.

AGATRGS was tested, and the “Cell Line the peptide is associated with (peptide recovered from phage library selection on this NCI-60 cell line)” value was “HS 578 T Breast”.

For GRSSVSD, the “Cell Line (NCI-60 cell line the peptide and its motif are associated with)” value was “OVCAR-8 Ovarian”.

WVGPSGG was tested, and the “Cell Line (NCI-60 cell line the peptide and its motif are associated with)” value was “SK-MEL-5 Melanoma”.

In the case of GSMHRVS, the “Cell Line (NCI-60 cell line the peptide is associated with)” value is reported as “SF-295 CNS”.

With QWYSLRS the “Cell Line (NCI-60 cell line the peptide is associated with)” value was “LOX-IMVI Melanoma”.

GAVLFRV was tested, and the “Cell Line with which the peptide” value was “Hop-62-Lung”.

With ARRGVLG the “Cell Line (NCI-60 cell line the peptide is associated with)” value was “COLO-205-Colon”.

In the case of LRPGLRS, the “Cell Line the peptide is associated with (peptide recovered from phage library selection on this NCI-60 cell line)” value is reported as “CAIK-1 Renal”.

SYMGAAS was tested, and the “Cell Line the peptide is associated with (peptide recovered from phage library selection on this NCI-60 cell line)” value was “SN12C Renal”.

For SGSGCVF, the “Cell Line (NCI-60 cell line the peptide and its motif are associated with)” value was “PC3 Prostate”.

For NRSSAKF, the “Cell Line with which the peptide” value was “K-562-Leukemia”.

In the case of GLVARVR, the “Cell Line (NCI-60 cell line the peptide and its motif are associated with)” value is reported as “SK-MEL-28 Melanoma”.

For GDLRVSV, the “Cell Line the peptide is associated with (peptide recovered from phage library selection on this NCI-60 cell line)” value was “UO31 Renal”.

GGRELKA was tested, and the “Cell Line (NCI-60 cell line the peptide and its motif are associated with)” value was “PC3 Prostate”.

With GESGRLS the “Cell Line with which the peptide” value was “Hop-92-Lung”.

In the case of RALGLVS, the “Cell Line with which the peptide” value is reported as “CCRF-CEM Leukemia”.

DGGSLVV was tested, and the “Cell Line (NCI-60 cell line the peptide is associated with)” value was “LOX-IMVI Melanoma”.

GVRSMPV was tested, and the “Cell Line (NCI-60 cell line the peptide is associated with)” value was “LOX-IMVI Melanoma”.

In the case of GSVSHRR, the “Cell Line (NCI-60 cell line the peptide and its motif are associated with)” value is reported as “SK-OV-3-3 Ovarian”.

With GEHLGGS the “Cell Line with which the peptide” value was “SR Leukemia”.

With FRAGVSH the “Cell Line (NCI-60 cell line the peptide is associated with)” value was “HCT-116 Colon”.

EADPGAV was tested, and the “Cell Line (NCI-60 cell line the peptide and its motif are associated with)” value was “UACC 257 Melanoma”.

For TIPAGGG, the “Cell Line the peptide is associated with (peptide recovered from phage library selection on this NCI-60 cell line)” value was “MDA-MB-231 Breast”.

In the case of RSYPLRS, the “Cell Line (NCI-60 cell line the peptide is associated with)” value is reported as “SW620-Colon”.

For GGGRRAL, the “Cell Line (NCI-60 cell line the peptide and its motif are associated with)” value was “PC3 Prostate”.

In the case of FRFVRGS, the “Cell Line the peptide is associated with (peptide recovered from phage library selection on this NCI-60 cell line)” value is reported as “HS 578 T Breast”.

With RRLSYHS the “Cell Line (NCI-60 cell line the peptide and its motif are associated with)” value was “M14 Melanoma; also recorded: OVCAR-3 Ovarian”.

In the case of SITRGGL, the “Cell Line (NCI-60 cell line the peptide and its motif are associated with)” value is reported as “DU-145 Prostate”.

With NMGRGSL the “Cell Line the peptide is associated with (peptide recovered from phage library selection on this NCI-60 cell line)” value was “ACHN Renal”.

For GTLRVGS, the “Cell Line (NCI-60 cell line the peptide is associated with)” value was “HT-29 Colon”.

AGLTIGI was tested, and the “Cell Line (NCI-60 cell line the peptide is associated with)” value was “SNB-19 CNS; also recorded: SF-539 CNS”.

With AVHSGRL the “Cell Line the peptide is associated with (peptide recovered from phage library selection on this NCI-60 cell line)” value was “ACHN Renal”.

For DEGGSRW, the “Cell Line (NCI-60 cell line the peptide and its motif are associated with)” value was “IGROV1 Ovarian”.

In the case of FRASLQY, the “Cell Line with which the peptide” value is reported as “Hop-62-Lung”.

With PLRVDNL the “Cell Line with which the peptide” value was “H23-Lung”.

DVRGRVW was tested, and the “Cell Line with which the peptide” value was “H460-Lung”.

With RVGRGVL the “Cell Line (NCI-60 cell line the peptide is associated with)” value was “SF-268 CNS”.

In the case of FLLLSHR, the “Cell Line the peptide is associated with (peptide recovered from phage library selection on this NCI-60 cell line)” value is reported as “SN12C Renal”.

With SGSVVQR the “Cell Line (NCI-60 cell line the peptide is associated with)” value was “LOX-IMVI Melanoma”.

For LQRGVAR, the “Cell Line (NCI-60 cell line the peptide and its motif are associated with)” value was “OVCAR-5 Ovarian”.

For GKALRGV, the “Cell Line with which the peptide” value was “Hop-62-Lung”.

VSAASSV was tested, and the “Cell Line the peptide is associated with (peptide recovered from phage library selection on this NCI-60 cell line)” value was “RXF393 Renal”.
